Results: ChEMBL document CHEMBL6096652, “Design, synthesis and anti-tumor evaluation of novel pyrimidine and quinazoline analogues” (Eur J Med Chem, 2025)

Experiments:
[1] = tested on: B16-F10; experiment: Antiproliferative activity against mouse B16-F10 cells incubated for 48 hrs by MTT assay; format: functional, cell-based; conditions: B16-F10, 48 h
[2] = tested on: A549; experiment: Antiproliferative activity against human A549 cells incubated for 48 hrs by MTT assay; format: functional, cell-based; conditions: A549, 48 h
[3] = tested on: HepG2; experiment: Antiproliferative activity against human HepG2 cells incubated for 48 hrs by MTT assay; format: functional, cell-based; conditions: HepG2, 48 h
[4] = tested on: MCF7; experiment: Antiproliferative activity against human MCF7 cells incubated for 48 hrs by MTT assay; format: functional, cell-based; conditions: MCF7, 48 h
[5] = tested on: B16-F10; experiment: Inhibition of cell migration in mouse B16-F10 cells assessed as recovery of scratch area at 50 nM incubated for 24 hrs by wound healing assay (reference value: 72.97 %); format: functional; design: scale not given: the % may be the effect or the level left
[6] = tested on: B16-F10; experiment: Antitumor activity against mouse B16-F10 cells implanted in C57BL/6 mouse at 10 mg/kg measured after 10 days relative to control; format: functional; conditions: B16-F10, 240 h, time 10 day, read-out: TGI

Compound	IC50 [1] [µM]	IC50 [2] [µM]	IC50 [3] [µM]	IC50 [4] [µM]	Activity [5] [%]	inhibition in vivo at 10 mg/kg [6] [%]
COc1cc(Nc2nc(-c3cccc4c3ccn4C)nc3ccccc23)cc(OC)c1OC	0.784	1.35	0.547	0.877	–	–
COc1cc(Nc2nc(-c3ccc4c(cnn4C)c3)nc3ccccc23)cc(OC)c1OC	1.78	6.47	3.14	3.33	–	–
COc1cc(Nc2ccnc(-c3cccc4c3cnn4C)n2)cc(OC)c1OC	4.57	5.55	5.92	7.12	–	–
COc1cc(Nc2ccnc(-c3ccc4c(cnn4C)c3)n2)cc(OC)c1OC	1.85	0.598	1.46	1.13	–	–
COc1cc2c(c(OC)c1OC)-c1ccc(OC)c(=O)cc1[C@@H](NC(C)=O)CC2 [COLCHICINE]	0.079	0.507	0.038	0.031	33.68	72.8
COc1cc(Nc2ccnc(-c3cc(OC)c(OC)c(OC)c3)n2)cc(OC)c1OC	> 50	> 50	> 50	> 50	–	–
COc1ccc(-c2nc(Nc3cc(OC)c(OC)c(OC)c3)c3ccccc3n2)cc1	> 50	> 50	> 50	> 50	–	–
COc1cc(Nc2nc(-c3cc(OC)c(OC)c(OC)c3)nc3ccccc23)cc(OC)c1OC	0.132	0.396	0.781	2.94	–	–
COc1cc(Nc2nc(-c3ccc(F)cc3)nc3ccccc23)cc(OC)c1OC	> 50	> 50	> 50	> 50	–	–
COc1cc(Nc2nc(-c3ccccc3)nc3ccccc23)cc(OC)c1OC	0.884	3.96	0.807	4.89	–	–
COc1ccc(-c2nc(Nc3cc(OC)c(OC)c(OC)c3)c3ccccc3n2)cc1OC	0.331	5.6	> 50	> 50	–	–

Second part, led by results:

IC50 [1] [µM]	IC50 [2] [µM]	IC50 [3] [µM]	IC50 [4] [µM]	Compound	Activity [5] [%]	inhibition in vivo at 10 mg/kg [6] [%]
> 50	6.08	> 50	> 50	COc1cc(NC(=O)c2ccnc(-c3ccc(C)cc3)n2)cc(OC)c1OC	–	–
2.28	3.09	1.1	1.89	COc1cc(NC(=O)c2ccnc(-c3cccc4c3ccn4C)n2)cc(OC)c1OC	–	–
4.97	1.08	6.53	6.74	COc1cc(Nc2ccnc(-c3ccc(O)c(C)c3)n2)cc(OC)c1OC	–	–
> 50	5.38	2.32	> 50	COc1cc(NC(=O)c2ccnc(-c3ccccc3)n2)cc(OC)c1OC	–	–
> 50	> 50	> 50	> 50	COc1cc(NC(=O)c2ccnc(-c3ccc(C(F)(F)F)cc3)n2)cc(OC)c1OC	–	–
> 50	3.09	> 50	> 50	COc1ccc(-c2nccc(Nc3cc(OC)c(OC)c(OC)c3)n2)cn1	–	–
8.25	6.51	7.94	> 50	COc1cc(Nc2ccnc(-c3ccc(F)cc3)n2)cc(OC)c1OC	–	–
> 50	4.76	4.33	> 50	COc1cc(Nc2ccnc(-c3ccc(C#N)cc3)n2)cc(OC)c1OC	–	–
> 50	> 50	> 50	> 50	COc1ccc(-c2nccc(C(=O)Nc3cc(OC)c(OC)c(OC)c3)n2)cc1OC	–	–
> 50	3.11	> 50	> 50	COc1cc(NC(=O)c2ccnc(-c3ccc4c(c3)OCCO4)n2)cc(OC)c1OC	–	–
> 50	1.83	2.44	> 50	COc1cc(Nc2nc(-c3ccc(C)cc3)nc3ccccc23)cc(OC)c1OC	–	–
7.62	2.14	1.85	5.77	COc1cc(Nc2ccnc(-c3ccc(C)cc3)n2)cc(OC)c1OC	–	–
1.82	2.31	4.9	5.31	COc1cc(Nc2ccnc(-c3ccc4c(ccn4C)c3)n2)cc(OC)c1OC	–	–
2.69	2.22	1.22	7.27	COc1ccc(-c2nccc(Nc3cc(OC)c(OC)c(OC)c3)n2)cc1	–	–
7.2	4.08	9.2	> 50	COc1cc(Nc2ccnc(-c3ccccc3)n2)cc(OC)c1OC	–	–
